Measured values: US20230151003A1, “COMPOUNDS AND METHODS OF USE” (Exelixis, Inc., priority 2020, published 2023)
Where a name gives a salt, the structure may show the parent alone.

Tests used:
Mer = target: T1, Mer (Homo sapiens, UniProt Q12866); experiment: Mer autophosphorylation ELISA in transient transfected 293A cells; type: cell-based; conditions: Table 3 Cellular Activities; MERTK-transfected 293A cells, phospho-Mer ELISA
T1 construct: host or cells: 293A cells (Thermo Fisher #R70507)
T1 sequence (Q12866 21-999): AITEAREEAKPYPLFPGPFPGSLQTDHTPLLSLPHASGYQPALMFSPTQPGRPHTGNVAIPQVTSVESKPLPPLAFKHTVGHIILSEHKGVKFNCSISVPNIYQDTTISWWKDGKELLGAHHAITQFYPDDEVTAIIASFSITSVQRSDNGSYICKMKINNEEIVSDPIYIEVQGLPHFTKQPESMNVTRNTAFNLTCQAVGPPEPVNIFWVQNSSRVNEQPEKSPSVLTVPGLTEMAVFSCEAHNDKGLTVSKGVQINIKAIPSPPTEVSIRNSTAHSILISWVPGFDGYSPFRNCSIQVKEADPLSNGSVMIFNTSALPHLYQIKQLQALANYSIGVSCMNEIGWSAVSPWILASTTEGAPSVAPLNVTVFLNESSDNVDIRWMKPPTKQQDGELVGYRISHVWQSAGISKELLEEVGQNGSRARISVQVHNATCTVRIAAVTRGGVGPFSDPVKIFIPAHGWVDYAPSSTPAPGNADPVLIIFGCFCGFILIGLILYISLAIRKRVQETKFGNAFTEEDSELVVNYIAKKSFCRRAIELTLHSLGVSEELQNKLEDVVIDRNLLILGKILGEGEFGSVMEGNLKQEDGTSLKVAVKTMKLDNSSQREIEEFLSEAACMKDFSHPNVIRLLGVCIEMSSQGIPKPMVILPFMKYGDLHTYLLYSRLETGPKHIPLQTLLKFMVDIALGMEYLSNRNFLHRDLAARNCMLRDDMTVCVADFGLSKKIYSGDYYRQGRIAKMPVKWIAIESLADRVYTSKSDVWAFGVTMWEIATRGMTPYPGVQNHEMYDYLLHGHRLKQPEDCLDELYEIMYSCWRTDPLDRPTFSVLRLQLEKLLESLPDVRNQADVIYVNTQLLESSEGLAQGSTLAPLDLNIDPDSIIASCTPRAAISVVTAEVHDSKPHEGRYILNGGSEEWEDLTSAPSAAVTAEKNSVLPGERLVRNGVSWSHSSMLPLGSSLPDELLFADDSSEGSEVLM
In short: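 Phospho-Mer quantified by ELISA in lysates of transiently MERTK-transfected 293A cells after 1 h exposure to an 8-point compound series, serum-free, 0.3% DMSO. Activity normalized between DMSO-treated (100%) and reference inhibitor-treated (0%) lysates; IC50 via 4-parameter nonlinear regression.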

Met = Met (Homo sapiens, UniProt P08581); experiment: Met autophosphorylation ELISA in PC-3 cells; type: cell-based; set-up: endogenous in cells; host or cells: PC-3 prostate cancer cells (ATCC #CRL-1435); conditions: Table 3 Cellular Activities, HGF-stimulated, phospho-Met ELISA, read-out: c-Met IC50
In short: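 IC50 derived by 4-parameter logistic regression of phospho-Met (panTyr) sandwich ELISA signal, scaled between HGF-stimulated DMSO and reference-inhibitor lysates. PC-3 cells, serum-starved 3 h, received an 8-point compound series (0.3% DMSO) for 1 h before 10 min stimulation with 100 ng/mL human HGF.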

Sequence of Met (P08581 25-1390): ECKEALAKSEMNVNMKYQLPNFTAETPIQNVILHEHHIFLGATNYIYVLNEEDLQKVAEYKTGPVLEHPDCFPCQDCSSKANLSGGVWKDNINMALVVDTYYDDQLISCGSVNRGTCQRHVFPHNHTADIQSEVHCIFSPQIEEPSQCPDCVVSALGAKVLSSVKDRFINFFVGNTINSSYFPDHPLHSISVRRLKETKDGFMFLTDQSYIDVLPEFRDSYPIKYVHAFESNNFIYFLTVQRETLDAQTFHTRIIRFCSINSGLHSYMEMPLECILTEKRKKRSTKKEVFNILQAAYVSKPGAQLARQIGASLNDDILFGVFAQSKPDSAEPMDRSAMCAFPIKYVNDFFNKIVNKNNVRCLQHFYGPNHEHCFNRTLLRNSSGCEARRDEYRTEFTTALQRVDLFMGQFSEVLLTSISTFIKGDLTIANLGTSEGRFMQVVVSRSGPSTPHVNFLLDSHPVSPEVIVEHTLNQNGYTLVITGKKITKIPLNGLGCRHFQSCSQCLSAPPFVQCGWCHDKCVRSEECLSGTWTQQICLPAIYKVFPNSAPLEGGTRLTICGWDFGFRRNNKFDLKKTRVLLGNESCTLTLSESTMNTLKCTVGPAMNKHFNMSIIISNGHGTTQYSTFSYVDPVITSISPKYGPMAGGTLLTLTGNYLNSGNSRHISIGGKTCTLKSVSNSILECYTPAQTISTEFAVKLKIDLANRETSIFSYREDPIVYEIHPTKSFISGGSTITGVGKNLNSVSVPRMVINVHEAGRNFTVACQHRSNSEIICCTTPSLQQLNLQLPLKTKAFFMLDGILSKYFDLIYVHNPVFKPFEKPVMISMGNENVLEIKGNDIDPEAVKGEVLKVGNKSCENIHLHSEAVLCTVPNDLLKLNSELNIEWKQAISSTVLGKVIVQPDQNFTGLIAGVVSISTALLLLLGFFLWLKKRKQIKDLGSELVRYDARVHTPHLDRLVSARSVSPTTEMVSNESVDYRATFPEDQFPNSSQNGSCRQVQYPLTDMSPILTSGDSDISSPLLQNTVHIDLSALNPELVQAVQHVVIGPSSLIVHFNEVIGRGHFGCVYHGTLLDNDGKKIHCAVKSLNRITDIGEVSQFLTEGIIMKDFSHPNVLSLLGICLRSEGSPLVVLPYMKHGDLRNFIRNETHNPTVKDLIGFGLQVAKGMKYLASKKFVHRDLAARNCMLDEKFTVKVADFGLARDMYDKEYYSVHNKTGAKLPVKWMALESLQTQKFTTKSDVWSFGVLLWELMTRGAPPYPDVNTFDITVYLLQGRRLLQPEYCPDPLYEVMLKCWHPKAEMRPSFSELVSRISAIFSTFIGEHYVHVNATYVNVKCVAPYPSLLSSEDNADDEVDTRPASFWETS

`COc1cc(-n2c(C)ccc(C(=O)Nc3ccc(Oc4ccnc5cc(OC)c(OC)nc45)c(F)c3)c2=O)ccn1` [Compound 226, N-[4-[(6,7-Dimethoxy-1,5-naphthyridin-4-yl)oxy]-3-fluorophenyl]-1-(2-methoxypyridin-4-yl)-6-methyl-2-oxopyridine-3-carboxamide] gave an IC50 (Mer) of no more than 100 nM and an IC50 (Met) of no more than 100 nM.
Work on `COc1cc2nccc(Oc3ccc(NC(=O)c4c5n(cc(-c6cccs6)c4=O)CCOC5)cc3F)c2nc1OC` [Compound 309, N-[4-[(6,7-Dimethoxy-1,5-naphthyridin-4-yl)oxy]-3-fluorophenyl]-8-oxo-7-thiophen-2-yl-3,4-dihydro-1H-pyrido[2,1-c][1,4]oxazine-9-carboxamide] yielded an IC50 (Mer) of no more than 100 nM and an IC50 (Met) of no more than 100 nM.
For `COc1cc2nccc(Oc3ccc(NC(=O)c4c(C)n(C)cc(-c5ccc(F)cn5)c4=O)cc3)c2nc1OC` [Compound 72, N-[4-[(6,7-Dimethoxy-1,5-naphthyridin-4-yl)oxy]phenyl]-5-(5-fluoropyridin-2-yl)-1,2-dimethyl-4-oxopyridine-3-carboxamide], the IC50 (Mer) was no more than 100 nM and the IC50 (Met) was no more than 100 nM.
For `COc1cc2nccc(Oc3ccc(NC(=O)c4c5n(c(C)c(-c6ccsc6)c4=O)CCOC5)cc3F)c2nc1OC` [Compound 307, N-[4-[(6,7-Dimethoxy-1,5-naphthyridin-4-yl)oxy]-3-fluorophenyl]-6-methyl-8-oxo-7-thiophen-3-yl-3,4-dihydro-1H-pyrido[2,1-c][1,4]oxazine-9-carboxamide], the IC50 (Mer) was no more than 100 nM and the IC50 (Met) was no more than 100 nM.
`COc1cc2nccc(Oc3ccc(NC(=O)c4cn(C)c(C)c(-c5ccc(F)cn5)c4=O)cc3)c2nc1OC` [Compound 86, N-[4-[(6,7-Dimethoxy-1,5-naphthyridin-4-yl)oxy]phenyl]-5-(5-fluoropyridin-2-yl)-1,6-dimethyl-4-oxopyridine-3-carboxamide] gave an IC50 (Mer) of no more than 100 nM and an IC50 (Met) of no more than 100 nM.
Work on `COc1cc2nccc(Oc3ccc(NC(=O)c4cnc(C)c(-c5ccc(F)cn5)c4O)cc3F)c2nc1OC` [Compound 85, N-[4-[(6,7-Dimethoxy-1,5-naphthyridin-4-yl)oxy]-3-fluorophenyl]-5-(5-fluoropyridin-2-yl)-4-hydroxy-6-methylpyridine-3-carboxamide] yielded an IC50 (Mer) of no more than 100 nM and an IC50 (Met) of no more than 100 nM.
With `COCCOc1cc2nccc(Oc3ccc(NC(=O)c4c(C)n(C)c(C)c(-c5ccco5)c4=O)cc3F)c2nc1OC` [Compound 254, N-[3-Fluoro-4-[[6-methoxy-7-(2-methoxyethoxy)-1,5-naphthyridin-4-yl]oxy]phenyl]-5-(furan-2-yl)-1,2,6-trimethyl-4-oxopyridine-3-carboxamide] the IC50 (Mer) was no more than 100 nM and the IC50 (Met) was no more than 100 nM.
In the case of `CCOc1ccn(-c2ccc(F)cn2)c(=O)c1C(=O)Nc1ccc(Oc2ccnc3cc(OC)c(OC)nc23)cc1` [Compound 244, N-[4-[(6,7-Dimethoxy-1,5-naphthyridin-4-yl)oxy]phenyl]-4-ethoxy-1-(5-fluoropyridin-2-yl)-2-oxopyridine-3-carboxamide], the IC50 (Mer) is reported as no more than 100 nM and the IC50 (Met) is reported as no more than 100 nM.
In the case of `COCCOc1cc2nccc(Oc3ccc(NC(=O)c4ccc(C)n(-c5ccc(F)cn5)c4=O)cc3F)c2nc1OC` [Compound 50, N-[3-Fluoro-4-[[6-methoxy-7-(2-methoxyethoxy)-1,5-naphthyridin-4-yl]oxy]phenyl]-1-(5-fluoropyridin-2-yl)-6-methyl-2-oxopyridine-3-carboxamide], the IC50 (Mer) is reported as no more than 100 nM and the IC50 (Met) is reported as no more than 100 nM.
`COc1cc2nccc(Oc3ccc(NC(=O)c4cnc(C)c(-c5ccco5)n4)cc3F)c2nc1OC` [Compound 269, N-[4-[(6,7-Dimethoxy-1,5-naphthyridin-4-yl)oxy]-3-fluorophenyl]-6-(furan-2-yl)-5-methylpyrazine-2-carboxamide] gave an IC50 (Mer) of no more than 100 nM and an IC50 (Met) of no more than 100 nM.
`COc1cnc2c(Oc3ccc(NC(=O)c4c(C)nc(C)c(-c5ccc(F)cn5)c4O)cc3F)ccnc2c1` [Compound 217, N-[3-Fluoro-4-[(7-methoxy-1,5-naphthyridin-4-yl)oxy]phenyl]-5-(5-fluoropyridin-2-yl)-4-hydroxy-2,6-dimethylpyridine-3-carboxamide] gave an IC50 (Mer) of no more than 100 nM and an IC50 (Met) of no more than 100 nM.
`Cc1ccc(C(=O)Nc2ccc(Oc3ccnc4cnc(Cl)cc34)c(F)c2)c(=O)n1-c1ccc(F)cn1` [Compound 54A, N-[4-[(6-Chloro-1,7-naphthyridin-4-yl)oxy]-3-fluorophenyl]-1-(5-fluoropyridin-2-yl)-6-methyl-2-oxopyridine-3-carboxamide] was tested, and the IC50 (Mer) was no more than 100 nM and the IC50 (Met) was no more than 100 nM.
`COc1cc2nccc(Oc3ccc(NC(=O)c4ccc(C)n(-c5ccc(F)cn5)c4=O)cc3F)c2nc1OC` [Compound 43, N-[4-[(6,7-Dimethoxy-1,5-naphthyridin-4-yl)oxy]-3-fluorophenyl]-1-(5-fluoropyridin-2-yl)-6-methyl-2-oxopyridine-3-carboxamide] showed an IC50 (Mer) of no more than 100 nM and an IC50 (Met) of no more than 100 nM.
`CCOc1ccn(-c2ccc(F)cn2)c(=O)c1C(=O)Nc1ccc(Oc2ccnc3cc(OC)c(OC)nc23)c(F)c1` [Compound 243, N-[4-[(6,7-dimethoxy-1,5-naphthyridin-4-yl)oxy]-3-fluorophenyl]-4-ethoxy-1-(5-fluoropyridin-2-yl)-2-oxopyridine-3-carboxamide] gave an IC50 (Mer) of no more than 100 nM and an IC50 (Met) of no more than 100 nM.
For `COc1ccc2nccc(Oc3ccc(NC(=O)c4ccc(C)n(-c5ccc(F)cn5)c4=O)cc3F)c2n1` [Compound 47, N-[3-Fluoro-4-[(6-methoxy-1,5-naphthyridin-4-yl)oxy]phenyl]-1-(5-fluoropyridin-2-yl)-6-methyl-2-oxopyridine-3-carboxamide], the IC50 (Mer) was no more than 100 nM and the IC50 (Met) was no more than 100 nM.
Compound `COc1cc2nccc(Oc3ccc(NC(=O)c4cccn(-c5ccnc(O)c5)c4=O)cc3F)c2nc1OC` [Compound 248, N-[4-[(6,7-Dimethoxy-1,5-naphthyridin-4-yl)oxy]-3-fluorophenyl]-1-(2-hydroxypyridin-4-yl)-2-oxopyridine-3-carboxamide hydrochloride] has an IC50 (Mer) of 300 to 1000 nM and an IC50 (Met) of no more than 100 nM.
`COc1cnc2c(Oc3ccc(NC(=O)c4cc(C(C)=O)c(C)n(-c5ccoc5)c4=O)cc3F)ccnc2c1` [Compound 240, 5-Acetyl-N-[3-fluoro-4-[(7-methoxy-1,5-naphthyridin-4-yl)oxy]phenyl]-1-(furan-3-yl)-6-methyl-2-oxopyridine-3-carboxamide] gave an IC50 (Mer) of no more than 100 nM and an IC50 (Met) of 300 to 1000 nM.
`COc1cc2nccc(Oc3ccc(NC(=O)c4cnc(C)c(-c5ccco5)c4O)cc3F)c2cc1OC` [Compound 259, N-[4-(6,7-Dimethoxyquinolin-4-yl)oxy-3-fluorophenyl]-5-(furan-2-yl)-4-hydroxy-6-methylpyridine-3-carboxamide] gave an IC50 (Mer) of no more than 100 nM and an IC50 (Met) of no more than 100 nM.
In the case of `COc1cc2nccc(Oc3ccc(NC(=O)c4nnc(C)c(-c5ccc(F)cn5)c4OC)cc3F)c2nc1OC` [Compound 215, N-[4-[(6,7-Dimethoxy-1,5-naphthyridin-4-yl)oxy]-3-fluorophenyl]-5-(5-fluoropyridin-2-yl)-4-methoxy-6-methylpyridazine-3-carboxamide], the IC50 (Mer) is reported as no more than 100 nM and the IC50 (Met) is reported as no more than 100 nM.
With `COc1cc2nccc(Oc3ccc(NC(=O)c4cnc(C)c(-c5ccco5)c4O)cc3)c2nc1OC` [Compound 255, N-[4-[(6,7-Dimethoxy-1,5-naphthyridin-4-yl)oxy]phenyl]-5-(furan-2-yl)-4-hydroxy-6-methylpyridine-3-carboxamide] the IC50 (Mer) was no more than 100 nM and the IC50 (Met) was no more than 100 nM.
Work on `COc1cc2nccc(Oc3ccc(NC(=O)c4c(C)ncc(-c5cccnc5)c4O)cc3F)c2nc1OC` [Compound 228, N-[4-[(6,7-Dimethoxy-1,5-naphthyridin-4-yl)oxy]-3-fluorophenyl]-4-hydroxy-2-methyl-5-pyridin-3-ylpyridine-3-carboxamide] yielded an IC50 (Mer) of no more than 100 nM and an IC50 (Met) of no more than 100 nM.
`COc1cc2nccc(Oc3ccc(NC(=O)c4ccc(C)n(-c5ccncc5F)c4=O)cc3F)c2nc1OC` [Compound 220, N-[4-[(6,7-Dimethoxy-1,5-naphthyridin-4-yl)oxy]-3-fluorophenyl]-1-(3-fluoropyridin-4-yl)-6-methyl-2-oxopyridine-3-carboxamide] was tested, and the IC50 (Mer) was no more than 100 nM and the IC50 (Met) was no more than 100 nM.
